B1: NH2-colicinIa-I626-GFTFSDYYMS-COOH (protein)
chain: SDPVARGITNPGAESLGYDSDGHEIMAVASPIYVASNPPRVASPVFHGTPPAWSSFGNKTIWGGNEWVASPDSPTRSDIEKRDKEITAYKNTLSAQQKENENKRTEAGKRLSAAIAAREKDENTLKTLRAGNADAADITRQEFRLLQAELREYGFRTEIAGYDALRLHTESRMLFADADSLRISPREARSLIEQAEKRQKDAQNADKKAADMLAEYERRKGILDTRLSELEKNGGAALAVLDAQQARLLGQQTRNDRAISEARNKLSSVTESLNTARNALTRAEQQLTQQKNTPDGKTIVSPEKFPGRSSTNHSIVVSGDPRFAGTIKITTSAVIDNRANLNYLLSHSGLDYKRNILNDRNPVVTEDVEGDKKIYNAEVALAEWDKLRQRLLDARNKITSAESAVASNSARNNLSARTNEQKHANDALNALLKEKENIRNQLSGINQKIAEEKRKQDELKATKDAINFTTEFLKSVSEKYGAKAEQLAREMAGQAKGKKIRNVEEALKTYEKYRADINKKINAKDRAAIAAALESVKLSDISSNLNRFSRGLGYAGKFTSLADWITEFGKAVARGTENWRPLFVKTETIIAGNAATALVALALVFSILTGSALGIIGYGLLMAVTGALIDESLVEKANKFWGIGFTFSDYYMS
modifications: G28 - S37 from HBV HBsAg ScFV linked to Colicin Ia
notes: heavy chain CDR1 of HBV HBsAg ScFv linked to colicin Ia at residue 626
B2: NH2-colicin Ia-I626-SYAIS-…-AAWDDSLH-COOH (protein)
chain: MSDPVARGITNPGAESLGYDSDGHEIMAVASPIYVASNPPRVASPVFHGTPPAWSSFGNKTIWGGNEWVASPDSPTRSDIEKRDKEITAYKNTLSAQQKENENKRTEAGKRLSAAIAAREKDENTLKTLRAGNADAADITRQEFRLLQAELREYGFRTEIAGYDALRLHTESRMLFADADSLRISPREARSLIEQAEKRQKDAQNADKKAADMLAEYERRKGILDTRLSELEKNGGAALAVLDAQQARLLGQQTRNDRAISEARNKLSSVTESLNTARNALTRAEQQLTQQKNTPDGKTIVSPEKFPGRSSTNHSIVVSGDPRFAGTIKITTSAVIDNRANLNYLLSHSGLDYKRNILNDRNPVVTEDVEGDKKIYNAEVALAEWDKLRQRLLDARNKITSAESAVASNSARNNLSARTNEQKHANDALNALLKEKENIRNQLSGINQKIAEEKRKQDELKATKDAINFTTEFLKSVSEKYGAKAEQLAREMAGQAKGKKIRNVEEALKTYEKYRADINKKINAKDRAAIAAALESVKLSDISSNLNRFSRGLGYAGKFTSLADWITEFGKAVARGTENWRPLFVKTETIIAGNAATALVALALVFSILTGSALGIIGYGLLMAVTGALIDESLVEKANKFWGISYAISWVARGQAAGQGLEWMGAAWDDSLH
modifications: CDRs from HBV PreS-1 ScFv linked to colicin Ia
notes: two CDRs from PreS-1 (Genbank AF427148) of HBV ScFv linked to colicin Ia
B3: NH2-colicinIa-I626-DEADYYCNSRDS-COOH (protein)
chain: SDPVARGITNPGAESLGYDSDGHEIMAVASPIYVASNPPRVASPVFHGTPPAWSSFGNKTIWGGNEWVASPDSPTRSDIEKRDKEITAYKNTLSAQQKENENKRTEAGKRLSAAIAAREKDENTLKTLRAGNADAADITRQEFRLLQAELREYGFRTEIAGYDALRLHTESRMLFADADSLRISPREARSLIEQAEKRQKDAQNADKKAADMLAEYERRKGILDTRLSELEKNGGAALAVLDAQQARLLGQQTRNDRAISEARNKLSSVTESLNTARNALTRAEQQLTQQKNTPDGKTIVSPEKFPGRSSTNHSIVVSGDPRFAGTIKITTSAVIDNRANLNYLLSHSGLDYKRNILNDRNPVVTEDVEGDKKIYNAEVALAEWDKLRQRLLDARNKITSAESAVASNSARNNLSARTNEQKHANDALNALLKEKENIRNQLSGINQKIAEEKRKQDELKATKDAINFTTEFLKSVSEKYGAKAEQLAREMAGQAKGKKIRNVEEALKTYEKYRADINKKINAKDRAAIAAALESVKLSDISSNLNRFSRGLGYAGKFTSLADWITEFGKAVARGTENWRPLFVKTETIIAGNAATALVALALVFSILTGSALGIIGYGLLMAVTGALIDESLVEKANKFWGIDEADYYCNSRDS
modifications: E217 - S228 from HBV HBsAg ScFV linked to Colicin Ia
notes: light chain CDR3 of HBV HBsAg ScFv linked to colicin Ia at residue 626

What was measured:
[1] = system: Candida albicans ATCC 10231; test: In vitro cell growth inhibition assay (OD595, filaments); settings: Ph-CA 5 μg/ml; Ph-SA 5 μg/ml; ampicillin 50 μg/ml; amphotericin B 200 ng/ml; fluconazole 3 μg/ml
[2] = system: Aspergillus niger SWA 1011 strain; test: In vitro cell growth inhibition assay; settings: Ph-CA 5 μg/ml; Ph-SA 5 μg/ml; amphotericin B 200 ng/ml; Fluconazole 3 μg/ml
[3] = system: SMMC-7721 cells transfected with HCV; format: cell-based, human; settings: about 100 micrograms per ml

Molecule | effect on growth of Candida albicans [1] | effect on growth of Aspergillus niger [2] | cell count and morphological features versus control [3]
C[C@@H]1[C@H](O)[C@@H](C)/C=C/C=C/C=C/C=C/C=C/C=C/C=C/[C@H](O[C@@H]2O[C@H](C)[C@@H](O)[C@H](N)[C@@H]2O)C[C@@H]2O[C@](O)(C[C@@H](O)C[C@@H](O)[C@H](O)CC[C@@H](O)C[C@@H](O)CC(=O)O[C@H]1C)C[C@H](O)[C@H]2C(=O)O [amphotericin B] | completely inhibited C. albicans growth | inhibited Aspergillus niger growth | –
OC(Cn1cncn1)(Cn1cncn1)c1ccc(F)cc1F [fluconazole] | no effect on the growth | no effect on the growth | –
B1 | – | – | Some of the treated cells died in comparison with the control and the rest became swollen and/or deformed
B2 | – | – | Cell swelling occurred in certain cells
B3 | – | – | A portion of the treated cells died in comparison with the control and the rest became swollen and/or deformed
